According to US20020198160A1, “Compositions and methods for enhancing the bioavailability of pharmaceutical agents” (priority 2001, published 2002):
Like-named read-outs stand apart in the source and are kept apart here.

Columns and labels:
[1] = tested on: H460/T800 cells (which over express P-glycoprotein); assay: Reduction of the IC50 of paclitaxel in paclitaxel resistant H460/T800 cells on adding lopinavir; assay type: cell-based
P-glycoprotein [2] = target: T1, P-glycoprotein (Homo sapiens, UniProt P08183); assay: in vitro; settings: Caco-2, pH 7.4
Procedure: (§1) The cells were grown and maintained in DMEM (Dulbecco's modified eagle's medium, purchased from Gibco/BRL, Grand Island, N.Y.) supplemented with 10% fetal bovine serum and 2 mM L-glutamine.
(§2) Cell cultures were maintained, antibiotic free, in a 37° C. incubator with 90% relative humidity in an atmosphere of 5% CO2. The cells were maintained in 10 cm^2 stock plates and seeded onto polycarbonate Transwell™ HTS filter inserts at 4×10^5 cells/mL. The cells were cultured on the filters for about 27-30 days. Caco-2 cells having passages between 40 and 110 were used for the studies.
(§3) The integrity of the cell monolayers was determined by measuring the paracellular transepithelial transport of the integrity marker, Lucifer yellow, which is commercially available from Sigma Chemical of St. Louis, Mo.
(§4) Stock concentrations (C0) of each of the P-glycoprotein inhibitors were treated similarly as dosed cells and were retained and sampled for starting dose. Aliquots for both the AP and the BL sides of the cell monolayers were taken at 2 hours, and such aliquots were analyzed by LSC Calculation of the apparent permeability by using the Artusson equation shown above. For the triplicate wells the P(app) is the mean of the three individual P(app) values for each well.

[3] = tested on: HCT15 cells (which express P-glycoprotein); assay: Decrease of the IC50 of paclitaxel in HCT15 cells on adding a P-glycoprotein inhibitor; assay type: cell-based; settings: lopinavir 5 μM added to paclitaxel
[4] = tested on: HCT15 cells (which express P-glycoprotein); assay: Efflux of radiolabelled lopinavir, ritonavir and paclitaxel from HCT15 cells; assay type: cell-based; settings: 1 μM loaded for 1 hour, FIG. 1
Procedure: The medium was aspirated and the cells were washed with PBS (phosphate buffered saline, available from Life Technologies, Rockvile, Md.). At harvest, the cells were washed once with PBS and the pellets were dissolved in 550 μl of 1N NaOH. The total protein was determined by Bio-Rad assay (available from Bio-Rad of Hercules, Ca.) and the total radioactivity was determined by LSC. Following normalization of the protein amount, cpm/μg protein for each time point was compared to the peak drug time 0.

P-glycoprotein [5] = target: T1, P-glycoprotein
Procedure: as §1, §2, §3, §4

P-glycoprotein [6] = target: T1, P-glycoprotein; assay: Vinblastine transepithelial bi-directional transport across Caco-2 cell monolayers with or without P-glycoprotein inhibitors; settings: Run 2, vinblastine 5 μM, inhibitor 10 μM
Procedure: as §1, §2, §3
(§5) The transport of vinblastine, which is the pharmaceutically active agent in these studies, was allowed to proceed for 120 minutes at 37° C. Stock concentrations (C0) of each of the P-glycoprotein inhibitors were treated similarly as dosed cells and were retained and sampled for starting dose. Aliquots for both the AP and the BL sides of the cell monolayers were taken at 2 hours, and such aliquots were analyzed by liquid scintillation counting (LSC) using a Packard Liquid Scintillation Counting machine. Calculation of the apparent permeability was done by using the following Artusson equation: [formula]
(§6) where dQ/dT is the flux rate (μg/sec), C0 is concentration of the starting material at t=0 (μg/mL), and A=the area of the monolayer (cm^2). For the triplicate wells the P(app) is the mean of the three individual P(app) values for each well.

P-glycoprotein [7] = target: T1, P-glycoprotein; assay: in vitro; settings: Caco-2
Procedure: as §1, §2, §3, §5, §6

[8] = Table 2B (printed Run 1), Caco-2, lopinavir or ritonavir 5 μM, CyA 10 μM, 120 minutes at 37° C., mean ± SD of triplicate wells
[9] = 120 minutes at 37° C., mean ± SD of triplicate wells

T1 sequence (P08183 whole entry): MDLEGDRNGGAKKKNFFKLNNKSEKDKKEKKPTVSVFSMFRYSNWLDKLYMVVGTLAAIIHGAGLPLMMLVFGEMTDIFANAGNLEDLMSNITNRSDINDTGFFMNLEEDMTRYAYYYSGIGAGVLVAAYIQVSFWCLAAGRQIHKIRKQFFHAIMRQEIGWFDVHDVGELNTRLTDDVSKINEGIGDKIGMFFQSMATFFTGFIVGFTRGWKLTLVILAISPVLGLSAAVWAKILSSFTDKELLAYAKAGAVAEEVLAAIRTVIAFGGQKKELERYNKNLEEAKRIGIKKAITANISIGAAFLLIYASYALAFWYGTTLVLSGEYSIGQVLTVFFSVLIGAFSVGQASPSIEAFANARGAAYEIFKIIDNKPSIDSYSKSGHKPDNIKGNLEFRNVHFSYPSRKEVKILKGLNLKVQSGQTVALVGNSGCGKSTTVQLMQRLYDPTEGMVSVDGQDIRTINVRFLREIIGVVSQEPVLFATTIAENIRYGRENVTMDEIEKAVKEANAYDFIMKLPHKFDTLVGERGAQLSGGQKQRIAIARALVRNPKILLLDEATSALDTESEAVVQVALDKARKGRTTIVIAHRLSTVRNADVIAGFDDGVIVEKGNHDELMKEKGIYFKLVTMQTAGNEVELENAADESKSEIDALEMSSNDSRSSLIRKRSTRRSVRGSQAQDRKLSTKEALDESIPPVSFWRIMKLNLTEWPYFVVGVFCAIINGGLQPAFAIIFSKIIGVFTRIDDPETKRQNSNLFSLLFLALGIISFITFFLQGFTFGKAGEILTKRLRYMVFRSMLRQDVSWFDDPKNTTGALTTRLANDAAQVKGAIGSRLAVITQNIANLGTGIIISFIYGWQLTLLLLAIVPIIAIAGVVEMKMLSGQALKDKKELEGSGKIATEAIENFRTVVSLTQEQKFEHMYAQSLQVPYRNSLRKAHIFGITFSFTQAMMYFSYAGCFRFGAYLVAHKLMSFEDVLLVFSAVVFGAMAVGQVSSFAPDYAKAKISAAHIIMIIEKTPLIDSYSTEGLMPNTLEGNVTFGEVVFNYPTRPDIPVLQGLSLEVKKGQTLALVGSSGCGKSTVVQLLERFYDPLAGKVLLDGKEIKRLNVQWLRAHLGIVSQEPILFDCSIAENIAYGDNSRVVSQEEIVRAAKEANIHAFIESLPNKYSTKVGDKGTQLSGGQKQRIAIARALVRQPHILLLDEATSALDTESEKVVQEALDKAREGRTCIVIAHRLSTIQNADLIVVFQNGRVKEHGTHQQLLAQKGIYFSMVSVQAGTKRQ

Cc1cccc(C)c1OCC(=O)N[C@@H](Cc1ccccc1)[C@@H](O)C[C@H](Cc1ccccc1)NC(=O)[C@H](C(C)C)N1CCCNC1=O (relative stereo) [Lopinavir, [1S-[1R*,(R*),3R*,4R*]]-N-[4-[[(2,6-dimethylphenoxy)acetyl]amino]-3-hydroxy-5-phenyl-1-(phenylmethyl)pentyl]tetrahydro-alpha-(1-methylethyl)-2-oxo-(2H)-pyrimidine acetamide]
reduction of the IC50 of paclitaxel ([1]; lopinavir 5 μM with paclitaxel): 11 fold | reduction of the IC50 of paclitaxel ([1]; lopinavir 10 μM with paclitaxel): 21 fold | Papp A→B at 120 min, 5 μM (P-glycoprotein [2]): 10.7 ± 0.58 ×10⁻⁶ cm/s | Papp B→A at 120 min, 5 μM (P-glycoprotein [2]): 9.55 ± 2.1 ×10⁻⁶ cm/s | decrease in the IC50 of paclitaxel [3]: 9 fold | compound remained in the HCT15 cells ([4]; after 60 minutes): approximately 80% | substrate for P-glycoprotein (conclusion from Tables 2A and 2B) (P-glycoprotein [5]; Caco-2 bi-directional permeability with or without cyclosporin A): not a substrate for P-glycoprotein | P(app) AP-BL (P-glycoprotein [5]; [8]): 18.72 ± 1.04 1 × 10(−6) cm/sec | P(app) BL-AP (P-glycoprotein [5]; [8]): 17.42 ± 4.37 1 × 10(−6) cm/sec

CC[C@]1(O)C[C@@H]2CN(CCc3c([nH]c4ccccc34)[C@@](C(=O)OC)(c3cc4c(cc3OC)N(C)[C@H]3[C@@](O)(C(=O)OC)[C@H](OC(C)=O)[C@]5(CC)C=CCN6CC[C@]43[C@@H]65)C2)C1 [Vinblastine, vinblastine]
Ratio (BL-AP/AP-BL) (P-glycoprotein [6]): 30.02 | P(app) AP-BL (P-glycoprotein [6]; [9]): 0.49 ± 0.00 1 × 10(−6) cm/sec | P(app) BL-AP (P-glycoprotein [6]; [9]): 14.71 ± 3.33 1 × 10(−6) cm/sec | Papp A→B at 120 min, 5 μM (P-glycoprotein [7]): 0.91 ± 0.07 ×10⁻⁶ cm/s | Papp B→A at 120 min, 5 μM (P-glycoprotein [7]): 17.7 ± 0.39 ×10⁻⁶ cm/s | efflux ratio at 120 min, 5 μM (P-glycoprotein [7]): 19.5

CC(C)c1nc(CN(C)C(=O)N[C@H](C(=O)N[C@@H](Cc2ccccc2)C[C@H](O)[C@H](Cc2ccccc2)NC(=O)OCc2cncs2)C(C)C)cs1 (relative stereo) [Ritonavir, [5S-(5R*,8R*,10R*,11R*)]-10-hydroxy-2-methyl-5-(1-methylethyl)-1-[2-(1-methylethyl)-4-thiazolyl]-3,6-dioxo-8,11-bis(phenylmethyl)-2,4,7,12-tetraazatridecan-13-oic acid, 5-thiazolylmethyl ester]
elimination (efflux) by the HCT15 cells ([4]; in 15 minutes): rapidly eliminated
